Laboratory results taken from patent publication US12570662B2, “Substituted pyrrolo[1,2-b]pyridazines as bifunctional degraders of interleukin-1 receptor-associated kinases” (Nurix Therapeutics, Inc., priority 2021, dated 2026).
Where two headings read alike, the source gives them in different places.

Molecular target: T1, IRAK4 (Homo sapiens, UniProt Q9NWZ3)
T1 construct: C-terminal HiBiT-tagged Jurkat cells (polyclonal cell line or clone 8D5); endogenous in cells; host or cells: Jurkat cells (polyclonal cell line or clone 8D5), HiBiT-tagged
T1 sequence (Q9NWZ3 1-460): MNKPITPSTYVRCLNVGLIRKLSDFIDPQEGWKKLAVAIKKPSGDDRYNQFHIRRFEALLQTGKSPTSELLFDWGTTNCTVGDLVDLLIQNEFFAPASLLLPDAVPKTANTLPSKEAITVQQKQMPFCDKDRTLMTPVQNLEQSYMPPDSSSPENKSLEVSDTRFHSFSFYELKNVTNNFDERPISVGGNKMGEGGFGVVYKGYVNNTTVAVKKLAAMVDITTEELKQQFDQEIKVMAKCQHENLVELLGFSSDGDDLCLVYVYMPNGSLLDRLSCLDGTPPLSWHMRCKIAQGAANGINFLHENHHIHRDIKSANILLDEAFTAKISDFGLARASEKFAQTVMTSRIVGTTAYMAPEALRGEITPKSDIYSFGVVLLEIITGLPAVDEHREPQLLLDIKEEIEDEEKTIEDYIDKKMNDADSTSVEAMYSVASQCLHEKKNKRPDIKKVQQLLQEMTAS
Test: IRAK4 Degradation HiBit Assay
Type: cell-based
Details: C-terminal HiBiT-tagged Jurkat cells, 4 hrs incubation; for DC50: % IRAK4 remaining, four-parameter fit (IC50 used as DC50); for Dmax: from fit of % IRAK4 remaining
Experimental: Compound dilution series (11-point, 3.16-fold dilutions in DMSO, columns 1-11 and 12-22) at 500× the final required concentrations were prepared in Labcyte LDV 384-well plates (cat. no. LP-0200) using a Labcyte Echo 550 Liquid Handler. The 500× solutions ranged from 5 mM to 0.5 μM (final assay concentration range 10 μM to 0.1 nM). Using the Echo, the 500× solutions were stamped into white, 384-well assay plates (Corning, cat. no. 3570) at 60 nL/well. The following assay plate controls were also stamped at 60 nL/well: DMSO in wells E23-P23 (NC, Negative Control, maximum signal), 5 mM solution control compound al in wells A23-D23 and M24-P24 (AC, Active Control, minimum signal/background, 10 μM final assay concentration), control compound al dilution series in wells […] (12-point, 4-fold dilutions). C-terminal HiBiT-tagged Jurkat cells (polyclonal cell line or clone 8D5) were plated at 1×10^6 cells/mL, 30 μL/well (3×10^4 cells/well) in complete RPMI (10% FBS, 1% L-glutamine). Cells were incubated for 4 hrs at 32° C./6% CO2. Compound al has the following structure:
Following incubation, 30 μL of complete Nano-Glo HiBiT Lytic Detection Reagent (Nano-Glo HiBiT Lytic Buffer with 1:50 Nano-Glo HiBiT Lytic Substrate and 1:100 LgBiT Protein; Promega cat. no. N3040) was added. Cells were further incubated for 10 min at room temperature (RT). Luminescence units (LU) were read on an EnVision plate reader (Perkin Elmer, 0.1 sec per well). Percent IRAK4 remaining per sample was calculated as follows: […]
Using Graphpad Prism, % IRAK4 remaining values were plotted as a function of compound concentration. To determine DC50 and Dmax values, resulting curves were fit to the Prism curve-fitting equation “log (inhibitor) vs response-Variable slope (four parameters)” (reported best fit value IC50 used as DC50). Table 1 summarizes the biological data of Compounds of Examples 1-137 and 142-145 obtained from the assays described herein.

Structure (SMILES) | DC50 [nM] | Dmax (read-out: Dmax) [%] | Dmax [%]
CC(C)Nc1cc(-c2ccc3cc(C#N)cnn23)ncc1-c1nnc(N2CCN(C(=O)[C@@H]3CCN(c4ccc([C@H]5CCC(=O)NC5=O)cn4)C3)CC2)s1 (racemic) [Example 20, 7-[5-(5-{4-[(3RS)-1-{5-[(3RS&)-2,6-dioxopiperidin-3-yl]pyridin-2-yl}pyrrolidine-3-carbonyl]piperazin-1-yl}-1,3,4-thiadiazol-2-yl)-4-[(propan-2-yl)amino]pyridin-2-yl]pyrrolo[1,2-b]pyridazine-3-carbonitrile] | 20 | 98 | 
N#Cc1cnn2c(-c3cc(NC4CCOCC4)c(-c4nnc(C56CCC(CN7CCN(c8ccc(C9CCC(=O)NC9=O)cn8)CC7)(CC5)CC6)s4)cn3)ccc2c1 (racemic) [Example 26, rac-7-[5-(5-{4-[(4-{5-[(3R)-2,6-dioxopiperidin-3-yl]pyridin-2-yl}piperazin-1-yl)methyl]bicyclo[2.2.2]octan-1-yl}-1,3,4-thiadiazol-2-yl)-4-[(oxan-4-yl)amino]pyridin-2-yl]pyrrolo[1,2-b]pyridazine-3-carbonitrile] | 120 | 80 | 
C[C@@H](C#N)Nc1cc(-c2ccc3cc(C#N)cnn23)ncc1-c1nnc(N2CC3CCC(C2)N3CC2CCN(c3ccc([C@H]4CCC(=O)NC4=O)cn3)CC2)s1 (single isomer, unassigned) [Example 143] | 72 | 99 | 
N#Cc1cnn2c(-c3cc(NC4CCOCC4)c(-c4nnc(N5CCN(C(=O)[C@H]6CCN(c7ccc([C@@H]8CCC(=O)NC8=O)cn7)C6)CC5)s4)cn3)ccc2c1 (racemic) [Example 17, 7-[5-(5-{4-[(3RS)-1-{5-[(3RS&)-2,6-dioxopiperidin-3-yl]pyridin-2-yl}pyrrolidine-3-carbonyl]piperazin-1-yl}-1,3,4-thiadiazol-2-yl)-4-[(oxan-4-yl)amino]pyridin-2-yl]pyrrolo[1,2-b]pyridazine-3-carbonitrile] | 12 | 100 | 
N#Cc1cnn2c(-c3cc(NC4CCOCC4)c(-c4nnc(C56CCC(C(=O)N7CCN(c8ccc(C9CCC(=O)NC9=O)cn8)CC7)(CC5)CC6)s4)cn3)ccc2c1 (racemic) [Example 22, rac-7-(5-{5-[4-(4-{5-[(3R)-2,6-dioxopiperidin-3-yl]pyridin-2-yl}piperazine-1-carbonyl)bicyclo[2.2.2]octan-1-yl]-1,3,4-thiadiazol-2-yl}-4-[(oxan-4-yl)amino]pyridin-2-yl)pyrrolo[1,2-b]pyridazine-3-carbonitrile] | 23 | 84 | 
N#Cc1cnn2c(-c3cc(NC4CCOCC4)c(-c4nnc(N5CCN(C[C@@H]6CCN(c7ccc([C@H]8CCC(=O)NC8=O)cn7)C6)CC5)s4)cn3)ccc2c1 (racemic) [Example 13, 7-{5-[5-(4-{[(3RS)-1-{5-[(3RS&)-2,6-dioxopiperidin-3-yl]pyridin-2-yl}pyrrolidin-3-yl]methyl}piperazin-1-yl)-1,3,4-thiadiazol-2-yl]-4-[(oxan-4-yl)amino]pyridin-2-yl}pyrrolo[1,2-b]pyridazine-3-carbonitrile] | 32 | 66 | 
N#CCNc1cc(-c2ccc3cc(C#N)cnn23)ncc1-c1nnc(N2CC3CCC(C2)N3CC2CCN(c3ccc([C@H]4CCC(=O)NC4=O)cc3)CC2)s1 (racemic) [Example 105, rac-7-{4-[(cyanomethyl)amino]-5-(5-{8-[(1-{4-[(3R)-2,6-dioxopiperidin-3-yl]phenyl}piperidin-4-yl)methyl]-3,8-diazabicyclo[3.2.1]octan-3-yl}-1,3,4-thiadiazol-2-yl)pyridin-2-yl}pyrrolo[1,2-b]pyridazine-3-carbonitrile] | 6 | 112 | 
N#Cc1cnn2c(-c3cc(NC4CCOCC4)c(-c4nnc(N5CCN(CC6CCN(c7ccc(N8CCC(=O)NC8=O)c(F)c7)CC6)CC5)s4)cn3)ccc2c1 [Example 8, 7-(5-{5-[4-({1-[4-(2,4-dioxo-1,3-diazinan-1-yl)-3-fluorophenyl]piperidin-4-yl}methyl)piperazin-1-yl]-1,3,4-thiadiazol-2-yl}-4-[(oxan-4-yl)amino]pyridin-2-yl)pyrrolo[1,2-b]pyridazine-3-carbonitrile] | 29 | 110 | 

Continued, values first:

DC50 [nM] | Dmax (read-out: Dmax) [%] | Dmax [%] | Structure (SMILES)
19 | 111 |  | N#Cc1cnn2c(-c3cc(NC4CC4)c(-c4nnc(N5CCN(CC6CCN(c7ccc(N8CCC(=O)NC8=O)cn7)CC6)CC5)s4)cn3)ccc2c1 [Example 78, 7-[4-(cyclopropylamino)-5-{5-[4-({1-[5-(2,4-dioxo-1,3-diazinan-1-yl)pyridin-2-yl]piperidin-4-yl}methyl)piperazin-1-yl]-1,3,4-thiadiazol-2-yl}pyridin-2-yl]pyrrolo[1,2-b]pyridazine-3-carbonitrile]
20 |  | 95 | N#Cc1cnn2c(-c3cc(NC4CCOCC4)c(-c4nnc(N5CCN(C[C@H]6[C@H]7CN(c8ccc(C9CCC(=O)NC9=O)cn8)C[C@@H]67)CC5)s4)cn3)ccc2c1 (mixture of isomers) [Example 100, 7-{5-[5-(4-{[(1RS&,5SR&,6RS&)-3-{5-[(3RS)-2,6-dioxopiperidin-3-yl]pyridin-2-yl}-3-azabicyclo[3.1.0]hexan-6-yl]methyl}piperazin-1-yl)-1,3,4-thiadiazol-2-yl]-4-[(oxan-4-yl)amino]pyridin-2-yl}pyrrolo[1,2-b]pyridazine-3-carbonitrile]
12 | 114 |  | CNc1cc(-c2ccc3cc(C#N)cnn23)ncc1-c1nnc([C@H]2CC[C@H](CN3CCN(c4ccc([C@@H]5CCC(=O)NC5=O)cn4)CC3)CC2)s1 (racemic) [Example 44, 7-[4-(methylamino)-5-{5-[(1r,4r)-4-[(4-{5-[(3RS)-2,6-dioxopiperidin-3-yl]pyridin-2-yl}piperazin-1-yl)methyl]cyclohexyl]-1,3,4-thiadiazol-2-yl}pyridin-2-yl]pyrrolo[1,2-b]pyridazine-3-carbonitrile]
9 | 113 |  | N#Cc1cnn2c(-c3cc(N[C@@H]4CCOC4)c(-c4nnc(N5CCN(CC6CCN(c7ccc([C@@H]8CCC(=O)NC8=O)cn7)CC6)CC5)s4)cn3)ccc2c1 (single isomer, unassigned) [Example 127]
21 | 99 |  | N#Cc1cnn2c(-c3cc(NC4CCOCC4)c(-c4nnc(N5CCN(CC6CCN(c7ccc(C8CCC(=O)NC8=O)nc7)CC6)CC5)s4)cn3)ccc2c1 (racemic) [Example 106, rac-7-[5-(5-{4-[(1-{6-[(3R)-2,6-dioxopiperidin-3-yl]pyridin-3-yl}piperidin-4-yl)methyl]piperazin-1-yl}-1,3,4-thiadiazol-2-yl)-4-[(oxan-4-yl)amino]pyridin-2-yl]pyrrolo[1,2-b]pyridazine-3-carbonitrile]
166 | 87 |  | N#Cc1cnn2c(-c3cc(N[C@H]4CCOC4)c(-c4nnc(N5CCN(CC6CCN(c7ccc([C@H]8CCC(=O)NC8=O)cn7)CC6)CC5)s4)cn3)ccc2c1 (single isomer, unassigned) [Example 144]
21 | 113 |  | CC1(Nc2cc(-c3ccc4cc(C#N)cnn34)ncc2-c2nnc(N3CCN(CC4CCN(c5ccc(C6CCC(=O)NC6=O)cn5)CC4)CC3)s2)COC1 (racemic) [Example 58, rac-7-[5-(5-{4-[(1-{5-[(3R)-2,6-dioxopiperidin-3-yl]pyridin-2-yl}piperidin-4-yl)methyl]piperazin-1-yl}-1,3,4-thiadiazol-2-yl)-4-[(3-methyloxetan-3-yl)amino]pyridin-2-yl]pyrrolo[1,2-b]pyridazine-3-carbonitrile]
14 | 111 |  | N#Cc1cnn2c(-c3cc(NC4CCOCC4)c(-c4nnc(N5CCN(CC6CCN(c7ccc(C8CCC(=O)NC8=O)cn7)CC6)CC5)s4)cn3)ccc2c1 (racemic) [Example 43, 7-(5-{5-[4-({1-[5-(2,6-dioxopiperidin-3-yl)pyridin-2-yl]piperidin-4-yl}methyl)piperazin-1-yl]-1,3,4-thiadiazol-2-yl}-4-(oxan-4-ylamino)pyridin-2-yl)pyrrolo[1,2-b]pyridazine-3-carbonitrile]
